pKi: −log10 of the molar value.
biological target: Integrin alpha-4/beta-1 [T112H] (Homo sapiens, UniProt P05556+P13612, T112H); assay: Jurkat J6 Scintillation Proximity Assay
Procedure: J6 cells (1 million cells/well) were allowed to coat wheat germ agglutinin coated SPA beads (Amersham, 1 mg/well) in assay buffer. Tritiated 3H Standard Compound A and test compounds were dissolved in an appropriate solvent and diluted in assay buffer. Data are presented as mean pKi.

pKi | Compound
7.70 | Cc1ccccc1NC(=O)Nc1ccc(-c2cccn(Cc3ccc([C@@H](C)CC(=O)O)cc3)c2=O)cc1OC(F)(F)F [(3S)-3-(4-{[3-(4-{[(2-methylphenyl)carbamoyl]amino}-3-(trifluoromethoxy)phenyl)-2-oxo-1,2-dihydropyridin-1-yl]methyl}phenyl)butanoic acid]
8.40 | Cc1ccccc1NC(=O)Nc1ccc(-c2cccn(Cc3ccc([C@H](C)CC(=O)O)cc3)c2=O)cc1OC(F)(F)F [(3R)-3-(4-{[3-(4-{[(2-methylphenyl)carbamoyl]amino}-3-(trifluoromethoxy)phenyl)-2-oxo-1,2-dihydropyridin-1-yl]methyl}phenyl)butanoic acid]
8.70 | Cc1ccccc1NC(=O)Nc1ccc(-c2cccn(Cc3ccc([C@@H](C)CC(=O)O)cc3)c2=O)cc1Cl [(3S)-3-(4-{[3-(3-chloro-4-{[(2-methylphenyl)carbamoyl]amino}phenyl)-2-oxo-1,2-dihydropyridin-1-yl]methyl}phenyl)butanoic acid]
8.30 | CCOc1cc(-c2cccn(Cc3ccc([C@@H](C)CC(=O)O)cc3)c2=O)ccc1NC(=O)Nc1ccccc1C [(3S)-3-(4-{[3-(3-ethoxy-4-{[(2-methylphenyl)carbamoyl]amino}phenyl)-2-oxo-1,2-dihydropyridin-1-yl]methyl}phenyl)butanoic acid]
9.00 | Cc1ccccc1NC(=O)Nc1ccc(-c2cccn(Cc3ccc([C@H](C)CC(=O)O)cc3)c2=O)cc1Cl [(3R)-3-(4-{[3-(3-chloro-4-{[(2-methylphenyl)carbamoyl]amino}phenyl)-2-oxo-1,2-dihydropyridin-1-yl]methyl}phenyl)butanoic acid]
8.20 | CCc1cc(-c2cccn(Cc3ccc([C@H](C)CC(=O)O)cc3)c2=O)ccc1NC(=O)Nc1ccccc1C [(3R)-3-(4-{[3-(3-ethyl-4-{[(2-methylphenyl)carbamoyl]amino}phenyl)-2-oxo-1,2-dihydropyridin-1-yl]methyl}phenyl)butanoic acid]
8.70 | CCOc1cc(-c2cccn(Cc3ccc([C@H](C)CC(=O)O)cc3)c2=O)ccc1NC(=O)Nc1ccccc1C [(3R)-3-(4-{[3-(3-ethoxy-4-{[(2-methylphenyl)carbamoyl]amino}phenyl)-2-oxo-1,2-dihydropyridin-1-yl]methyl}phenyl)butanoic acid]
8.60 | Cc1ccccc1NC(=O)Nc1ccc(-c2cccn(Cc3ccc([C@H](C)CC(=O)O)cc3)c2=O)c(C)c1 [(3R)-3-(4-{[3-(2-methyl-4-{[(2-methylphenyl)carbamoyl]amino}phenyl)-2-oxo-1,2-dihydropyridin-1-yl]methyl}phenyl)butanoic acid]
9.10 | Cc1ccccc1NC(=O)Nc1ccc(-c2cccn(Cc3ccc([C@H](C)CC(=O)O)cc3)c2=O)c(Cl)c1 [(3R)-3-(4-{[3-(2-chloro-4-{[(2-methylphenyl)carbamoyl]amino}phenyl)-2-oxo-1,2-dihydropyridin-1-yl]methyl}phenyl)butanoic acid]
9.00 | Cc1ccccc1NC(=O)Nc1ccc(-c2cccn(Cc3ccc([C@H](C)CC(=O)O)cc3)c2=O)cc1C [(3R)-3-(4-{[3-(3-methyl-4-{[(2-methylphenyl)carbamoyl]amino}phenyl)-2-oxo-1,2-dihydropyridin-1-yl]methyl}phenyl)butanoic acid]
7.30 | CCc1cc(-c2cccn(Cc3ccc([C@@H](C)CC(=O)O)cc3)c2=O)ccc1NC(=O)Nc1ccccc1C [(3S)-3-(4-{[3-(3-ethyl-4-{[(2-methylphenyl)carbamoyl]amino}phenyl)-2-oxo-1,2-dihydropyridin-1-yl]methyl}phenyl)butanoic acid]
8.60 | Cc1ccccc1NC(=O)Nc1ccc(-c2cccn(Cc3ccc([C@@H](C)CC(=O)O)cc3)c2=O)cc1C [(3S)-3-(4-{[3-(3-methyl-4-{[(2-methylphenyl)carbamoyl]amino}phenyl)-2-oxo-1,2-dihydropyridin-1-yl]methyl}phenyl)butanoic acid]
7.70 | Cc1ccccc1NC(=O)Nc1ccc(-c2cccn(Cc3ccc([C@@H](C)CC(=O)O)cc3)c2=O)c(C)c1 [(3S)-3-(4-{[3-(2-methyl-4-{[(2-methylphenyl)carbamoyl]amino}phenyl)-2-oxo-1,2-dihydropyridin-1-yl]methyl}phenyl)butanoic acid]
7.60 | Cc1ccccc1NC(=O)Nc1ccc(-c2cccn(Cc3ccc([C@@H](C)CC(=O)O)cc3)c2=O)c(Cl)c1 [(3S)-3-(4-{[3-(2-chloro-4-{[(2-methylphenyl)carbamoyl]amino}phenyl)-2-oxo-1,2-dihydropyridin-1-yl]methyl}phenyl)butanoic acid]

Source: BindingDB's records for doi:10.1016/j.bmcl.2006.08.044 (Glaxosmithkline, 2006)
